From PMC6979384, “Characterization of the plant homeodomain (PHD) reader family for their histone tail interactions” (Epigenetics & Chromatin, 2020)

How the values were obtained:
Test in all cases: Histone peptide microarray
Assay type in all cases: binding, human
PHF8 = conditions: sheet "Array Heatmap", total n = 4; for Array Heatmap value (peptide array signal): PHF8, each array performed twice
Outline: (§1)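 GST-tagged PHD readers, 0.5 μM, probed on a microarray of 293 synthetic histone peptides carrying single or combinatorial PTMs (optimized Petell protocol). Signals are averaged over 4 replicates and expressed as relative binding.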

ING5 = conditions: sheet "Array Heatmap", total n = 4; for Array Heatmap value (peptide array signal): ING5, each array performed twice
Outline: as §1

RAG2 = conditions: sheet "Array Heatmap", total n = 4; for Array Heatmap value (peptide array signal): RAG2, each array performed twice
Outline: as §1

DIDO1 = conditions: sheet "Array Heatmap", total n = 4; for Array Heatmap value (peptide array signal): DIDO1, each array performed twice
Outline: as §1

KDM7A = conditions: sheet "Array Heatmap", total n = 4; for Array Heatmap value (peptide array signal): KDM7A, each array performed twice
Outline: as §1

KDM5A (3) = conditions: sheet "Array Heatmap", total n = 4; for Array Heatmap value (peptide array signal): KDM5A (3), each array performed twice
Outline: as §1

ING3 = conditions: sheet "Array Heatmap", total n = 4; for Array Heatmap value (peptide array signal): ING3, each array performed twice
Outline: as §1

TRIM66 (PB) = conditions: sheet "Array Heatmap", total n = 4; for Array Heatmap value (peptide array signal): TRIM66 (PB), each array performed twice
Outline: as §1

PHF21A = conditions: sheet "Array Heatmap", total n = 4; for Array Heatmap value (peptide array signal): PHF21A, each array performed twice
Outline: as §1

BAZ2B = conditions: sheet "Array Heatmap", total n = 4; for Array Heatmap value (peptide array signal): BAZ2B, each array performed twice
Outline: as §1

ING1 = conditions: sheet "Array Heatmap", total n = 4; for Array Heatmap value (peptide array signal): ING1, each array performed twice
Outline: as §1

CHD4 (PPCC) = conditions: sheet "Array Heatmap", total n = 4; for Array Heatmap value (peptide array signal): CHD4 (PPCC), each array performed twice
Outline: as §1

KDM5A (1) = conditions: sheet "Array Heatmap", total n = 4; for Array Heatmap value (peptide array signal): KDM5A (1), each array performed twice
Outline: as §1

SP140L = conditions: sheet "Array Heatmap", total n = 4; for Array Heatmap value (peptide array signal): SP140L, each array performed twice
Outline: as §1

CHD5 (PPCC) = conditions: sheet "Array Heatmap", total n = 4; for Array Heatmap value (peptide array signal): CHD5 (PPCC), each array performed twice
Outline: as §1

BPTF (PB) = conditions: sheet "Array Heatmap", total n = 4; for Array Heatmap value (peptide array signal): BPTF (PB), each array performed twice
Outline: as §1

PHF13 = conditions: sheet "Array Heatmap", total n = 4; for Array Heatmap value (peptide array signal): PHF13, each array performed twice
Outline: as §1

AIRE (PP) = conditions: sheet "Array Heatmap", total n = 4; for Array Heatmap value (peptide array signal): AIRE (PP), each array performed twice
Outline: as §1

PHF2 = conditions: sheet "Array Heatmap", total n = 4; for Array Heatmap value (peptide array signal): PHF2, each array performed twice
Outline: as §1

PHRF1 (RP) = conditions: sheet "Array Heatmap", total n = 4; for Array Heatmap value (peptide array signal): PHRF1 (RP), each array performed twice
Outline: as §1

ING4 = conditions: sheet "Array Heatmap", total n = 4; for Array Heatmap value (peptide array signal): ING4, each array performed twice
Outline: as §1

DPF2 (PPC2W2) = conditions: sheet "Array Heatmap", total n = 4; for Array Heatmap value (peptide array signal): DPF2 (PPC2W2), each array performed twice
Outline: as §1

KDM5B (1) = conditions: sheet "Array Heatmap", total n = 4; for Array Heatmap value (peptide array signal): KDM5B (1), each array performed twice
Outline: as §1

MLL5 = conditions: sheet "Array Heatmap", total n = 4; for Array Heatmap value (peptide array signal): MLL5, each array performed twice
Outline: as §1

KDM4C (TTP) = conditions: sheet "Array Heatmap", total n = 4; for Array Heatmap value (peptide array signal): KDM4C (TTP), each array performed twice
Outline: as §1

CHD5 (PCC) = conditions: sheet "Array Heatmap", total n = 4; for Array Heatmap value (peptide array signal): CHD5 (PCC), each array performed twice
Outline: as §1

PHF23 = conditions: sheet "Array Heatmap", total n = 4; for Array Heatmap value (peptide array signal): PHF23, each array performed twice
Outline: as §1

ING2 = conditions: sheet "Array Heatmap", total n = 4; for Array Heatmap value (peptide array signal): ING2, each array performed twice
Outline: as §1

TAF3 = conditions: sheet "Array Heatmap", total n = 4; for Array Heatmap value (peptide array signal): TAF3, each array performed twice
Outline: as §1

MORC3 (CW) = conditions: sheet "Array Heatmap", total n = 4; for Array Heatmap value (peptide array signal): MORC3 (CW), each array performed twice
Outline: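 GST-tagged PHD finger readers were expressed, purified and applied at 0.5 μM to a microarray of 293 synthetic histone peptides carrying single or combinatorial PTMs, using an optimized protocol. Binding signals are averages with standard deviation from 4 replicates.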

KDM5B (3) = conditions: sheet "Array Heatmap", total n = 4; for Array Heatmap value (peptide array signal): KDM5B (3), each array performed twice
Outline: as §1

[1] = GST-tagged reader, histone peptide array

H3.3K18ac + K23ac + K27ac: H3.3 15-34 was tested, and the “Array Heatmap signal, PHF8” value (PHF8; [1]) was 0.3485, the “Array Heatmap signal, ING5” value (ING5; [1]) was 0.2999 and the “Array Heatmap signal, RAG2” value (RAG2; [1]) was 0.2141. The “Array Heatmap signal, DIDO1” value (DIDO1; [1]) was 0.6174, the “Array Heatmap signal, KDM7A” value (KDM7A; [1]) was 0.2948 and the “Array Heatmap signal, KDM5A (3)” value (KDM5A (3); [1]) was 0.3827. For the same substance, the “Array Heatmap signal, ING3” value (ING3; [1]) was 0.4284, the “Array Heatmap signal, TRIM66 (PB)” value (TRIM66 (PB); [1]) was 0.509 and the “Array Heatmap signal, PHF21A” value (PHF21A; [1]) was 0.4029. For the same substance, the “Array Heatmap signal, BAZ2B” value (BAZ2B; [1]) was 0.3976, the “Array Heatmap signal, ING1” value (ING1; [1]) was 0.4856 and the “Array Heatmap signal, CHD4 (PPCC)” value (CHD4 (PPCC); [1]) was 0.4939. The “Array Heatmap signal, KDM5A (1)” value (KDM5A (1); [1]) was 0.4013, the “Array Heatmap signal, SP140L” value (SP140L; [1]) was 0.3146 and the “Array Heatmap signal, CHD5 (PPCC)” value (CHD5 (PPCC); [1]) was 0.4663. The “Array Heatmap signal, BPTF (PB)” value (BPTF (PB); [1]) was 0.2983, the “Array Heatmap signal, PHF13” value (PHF13; [1]) was 0.5394 and the “Array Heatmap signal, AIRE (PP)” value (AIRE (PP); [1]) was 0.3882. The “Array Heatmap signal, PHF2” value (PHF2; [1]) was 0.5078, the “Array Heatmap signal, PHRF1 (RP)” value (PHRF1 (RP); [1]) was 0.3802 and the “Array Heatmap signal, ING4” value (ING4; [1]) was 0.3863. For the same substance, the “Array Heatmap signal, DPF2 (PPC2W2)” value (DPF2 (PPC2W2); [1]) was 0.5923, the “Array Heatmap signal, KDM5B (1)” value (KDM5B (1); [1]) was 0.6049 and the “Array Heatmap signal, MLL5” value (MLL5; [1]) was 0.5276. The “Array Heatmap signal, KDM4C (TTP)” value (KDM4C (TTP); [1]) was 0.4047, the “Array Heatmap signal, CHD5 (PCC)” value (CHD5 (PCC); [1]) was 0.7415 and the “Array Heatmap signal, PHF23” value (PHF23; [1]) was 0.5184. For the same substance, the “Array Heatmap signal, ING2” value (ING2; [1]) was 0.5898, the “Array Heatmap signal, TAF3” value (TAF3; [1]) was 0.2149 and the “Array Heatmap signal, MORC3 (CW)” value (MORC3 (CW); [1]) was 0.3178. For the same substance, the “Array Heatmap signal, KDM5B (3)” value (KDM5B (3); [1]) was 0.4033.

In the case of H3.3K27bhb (15-34): H3.3 15-34, the “Array Heatmap value (peptide array signal)” value (from here on “Array Heatmap value”) (PHF8) is reported as 0.363, the “Array Heatmap value” value (ING5) is reported as 0.34 and the “Array Heatmap value” value (RAG2) is reported as 0.2325. The “Array Heatmap value” value (DIDO1) was 0.6388, the “Array Heatmap value” value (KDM7A) was 0.312 and the “Array Heatmap value” value (KDM5A (3)) was 0.404. For the same substance, the “Array Heatmap value” value (ING3) was 0.4499, the “Array Heatmap value” value (TRIM66 (PB)) was 0.6188 and the “Array Heatmap value” value (PHF21A) was 0.4386. The “Array Heatmap value” value (BAZ2B) was 0.4313, the “Array Heatmap value” value (ING1) was 0.5173 and the “Array Heatmap value” value (CHD4 (PPCC)) was 0.5447. For the same substance, the “Array Heatmap value” value (KDM5A (1)) was 0.4361, the “Array Heatmap value” value (SP140L) was 0.3378 and the “Array Heatmap value” value (CHD5 (PPCC)) was 0.5245. For the same substance, the “Array Heatmap value” value (BPTF (PB)) was 0.3432, the “Array Heatmap value” value (PHF13) was 0.6011 and the “Array Heatmap value” value (AIRE (PP)) was 0.4047. The “Array Heatmap value” value (PHF2) was 0.5233, the “Array Heatmap value” value (PHRF1 (RP)) was 0.4098 and the “Array Heatmap value” value (ING4) was 0.4357. The “Array Heatmap value” value (DPF2 (PPC2W2)) was 0.6281, the “Array Heatmap value” value (KDM5B (1)) was 0.6279 and the “Array Heatmap value” value (MLL5) was 0.5648. For the same substance, the “Array Heatmap value” value (KDM4C (TTP)) was 0.4386, the “Array Heatmap value” value (CHD5 (PCC)) was 0.7166 and the “Array Heatmap value” value (PHF23) was 0.5306. For the same substance, the “Array Heatmap value” value (ING2) was 0.6144, the “Array Heatmap value” value (TAF3) was 0.2621 and the “Array Heatmap value” value (MORC3 (CW)) was 0.3496. For the same substance, the “Array Heatmap value” value (KDM5B (3)) was 0.4143.

With H3.3K27hxo (15-34): H3.3 15-34 the “Array Heatmap value” value (PHF8) was 0.2775, the “Array Heatmap value” value (ING5) was 0.2604 and the “Array Heatmap value” value (RAG2) was 0.1931. For the same substance, the “Array Heatmap value” value (DIDO1) was 0.6054, the “Array Heatmap value” value (KDM7A) was 0.2316 and the “Array Heatmap value” value (KDM5A (3)) was 0.3948. For the same substance, the “Array Heatmap value” value (ING3) was 0.3628, the “Array Heatmap value” value (TRIM66 (PB)) was 0.4904 and the “Array Heatmap value” value (PHF21A) was 0.3552. The “Array Heatmap value” value (BAZ2B) was 0.3359, the “Array Heatmap value” value (ING1) was 0.4956 and the “Array Heatmap value” value (CHD4 (PPCC)) was 0.4698. The “Array Heatmap value” value (KDM5A (1)) was 0.3701, the “Array Heatmap value” value (SP140L) was 0.2976 and the “Array Heatmap value” value (CHD5 (PPCC)) was 0.3985. For the same substance, the “Array Heatmap value” value (BPTF (PB)) was 0.2696, the “Array Heatmap value” value (PHF13) was 0.4541 and the “Array Heatmap value” value (AIRE (PP)) was 0.3038. The “Array Heatmap value” value (PHF2) was 0.4925, the “Array Heatmap value” value (PHRF1 (RP)) was 0.3528 and the “Array Heatmap value” value (ING4) was 0.3406. For the same substance, the “Array Heatmap value” value (DPF2 (PPC2W2)) was 0.5523, the “Array Heatmap value” value (KDM5B (1)) was 0.5964 and the “Array Heatmap value” value (MLL5) was 0.4892. For the same substance, the “Array Heatmap value” value (KDM4C (TTP)) was 0.3245, the “Array Heatmap value” value (CHD5 (PCC)) was 0.595 and the “Array Heatmap value” value (PHF23) was 0.4877. For the same substance, the “Array Heatmap value” value (ING2) was 0.5803, the “Array Heatmap value” value (TAF3) was 0.2046 and the “Array Heatmap value” value (MORC3 (CW)) was 0.2947. The “Array Heatmap value” value (KDM5B (3)) was 0.3693.
